From patent US20090170937A1, “Amino Acid Derivatives” (Proximagen Ltd., priority 2006, published 2009)
Non-standard residues stand in square brackets, D forms with d. Residues, ends and D or L forms follow the SMILES beside them. *: point of attachment. Dopa = N[C@@H](Cc1ccc(O)c(O)c1)C(=O)O; αMeF = C[C@](N)(Cc1ccccc1)C(=O)O; Aic = NC1(C(=O)O)Cc2ccccc2C1; Ac6c = NC1(C(=O)O)CCCCC1; Ac5c = NC1(C(=O)O)CCCC1; Ac4c = NC1(C(=O)O)CCC1; Ac3c = NC1(C(=O)O)CC1; Aib = CC(C)(N)C(=O)O; OcHex = C1CCC(O*)CC1; OBn = c1ccc(CO*)cc1; OiPr = CC(C)O*

What follows are compounds tested on 6-OHDA-lesioned rats (assay: Induction of rotational activity in 6-OHDA-lesioned rats). Settings: i.p., 63.4 μmole/kg, after benserazide 10 mg/kg; active = >10 turns per 10 minutes.
Type: in vivo, Male Wistar rats

SMILES | duration of activity (as % of L-DOPA duration of activity) [%]
COC(=O)[C@H](Cc1ccc(O)c(O)c1)NC(=O)C(C)(C)N.Cl [Example 1, 1-[(S)-2-(3,4-Dihydroxyphenyl)-1-methoxycarbonylethylcarbamoyl]-1-methyl-ethylammonium Chloride] (H-[Aib]-[Dopa]-OMe) | 63

Same assay, conditions: p.o., 63.4 μmole/kg, after benserazide 10 mg/kg; active = >10 turns per 10 minutes

SMILES | duration of activity (as % of L-DOPA duration of activity) [%]
COC(=O)[C@H](Cc1ccc(OC(C)=O)c(OC(C)=O)c1)NC(=O)C(C)(C)N.Cl [Example 2, 1-[(S)-2-(3,4-Diacetoxyphenyl)-1-methoxycarbonylethylcarbamoyl]-1-methyl-ethylammonium Chloride] | 73
CC(C)(N)C(=O)N[C@@H](Cc1ccc(O)c(O)c1)C(=O)OCc1ccccc1.Cl [Example 3, 1-[(S)-1-Benzyloxycarbonyl-2-(3,4-dihydroxyphenyl)-ethylcarbamoyl]-1-methyl-ethylammonium Chloride] (H-[Aib]-[Dopa]-OBn) | 38
COC(=O)[C@H](Cc1ccc(O)c(O)c1)NC(=O)C1(N)CCCCC1.Cl [Example 4, 1-[(S)-2-(3,4-Dihydroxy-phenyl)-1-methoxycarbonyl-ethylcarbamoyl]-cyclohexyl-ammonium Chloride] (H-[Ac6c]-[Dopa]-OMe) | 84
COC(=O)[C@H](Cc1ccc(OC(C)=O)c(OC(C)=O)c1)NC(=O)C1(N)CCCCC1.Cl [Example 5, 1-[(S)-2-(3,4-Diacetoxyphenyl)-1-methoxycarbonylethylcarbamoyl]-cyclohexyl-ammonium Chloride] | 42
CC(C)(N)C(=O)N[C@@H](Cc1ccc(O)c(O)c1)C(=O)O.Cl [Example 6, 1-[(S)-1-Carboxy-2-(3,4-dihydroxyphenyl)-ethylcarbamoyl]-1-methylethyl-ammonium Chloride] (H-[Aib]-[Dopa]-OH) | 57
COC(=O)[C@H](Cc1ccc(O)c(O)c1)NC(=O)C1(N)CCCC1.Cl [Example 7, 1-[(S)-2-(3,4-Dihydroxyphenyl)-1-methoxycarbonylethylcarbamoyl]-cyclopentyl-ammonium Chloride] (H-[Ac5c]-[Dopa]-OMe) | 97
COC(=O)[C@H](Cc1ccc(OC(C)=O)c(OC(C)=O)c1)NC(=O)C1(N)CCCC1.Cl [Example 8, 1-[(S)-2-(3,4-Diacetoxyphenyl)-1-methoxycarbonylethylcarbamoyl]-cyclopentyl-ammonium Chloride] | 44
CC(=O)Oc1ccc(C[C@H](NC(=O)C(C)(C)N)C(=O)O)cc1OC(C)=O.Cl [Example 9, 1-[(S)-1-Carboxy-2-(3,4-diacetoxyphenyl)-ethylcarbamoyl]-1-methylethyl-ammonium Chloride] | 45
COC(=O)[C@H](Cc1ccc(O)c(O)c1)NC(=O)C1(N)CCC1.Cl [Example 10] (H-[Ac4c]-[Dopa]-OMe) | 73
COC(=O)[C@H](Cc1ccc(OC(C)=O)c(OC(C)=O)c1)NC(=O)C1(N)CCC1.Cl [Example 11, 1-[(S)-2-(3,4-Diacetoxyphenyl)-1-methoxycarbonylethylcarbamoyl]-cyclobutyl-ammonium Chloride] | 67
COC(=O)[C@H](Cc1ccc(O)c(O)c1)NC(=O)[C@@](C)(N)Cc1ccccc1.Cl [Example 12, (S)-1-[(S)-2-(3,4-Dihydroxyphenyl)-1-methoxycarbonyl-ethylcarbamoyl]-1-methyl-2-phenylethylammonium Chloride] (H-[αMeF]-[Dopa]-OMe) | 52
C[C@](N)(Cc1ccccc1)C(=O)N[C@@H](Cc1ccc(O)c(O)c1)C(=O)O.Cl [Example 13, (S)-1-[(S)-1-Carboxy-2-(3,4-dihydroxyphenyl)-ethylcarbamoyl]-1-methyl-2-phenylethylammonium Chloride] (H-[αMeF]-[Dopa]-OH) | 40
Cl.NC1(C(=O)N[C@@H](Cc2ccc(O)c(O)c2)C(=O)O)CCCC1 [Example 14, 1-[(S)-1-Carboxy-2-(3,4-dihydroxyphenyl)-ethylcarbamoyl]-cyclopentyl-ammonium Chloride] (H-[Ac5c]-[Dopa]-OH) | 62
COC(=O)[C@H](Cc1ccc(O)c(O)c1)NC(=O)C1(N)Cc2ccccc2C1.Cl [Example 15, 2-[(S)-2-(3,4-Dihydroxyphenyl)-1-methoxycarbonylethylcarbamoyl]-indan-2-yl-ammonium Chloride] (H-[Aic]-[Dopa]-OMe) | 31
COC(=O)[C@H](Cc1ccc(OC(C)=O)c(OC(C)=O)c1)NC(=O)C1(N)Cc2ccccc2C1.Cl [Example 16, 2-[(S)-2-(3,4-Diacetoxyphenyl)-1-methoxycarbonylethylcarbamoyl]-indan-2-yl-ammonium Chloride] | 21
CC(C)OC(=O)[C@H](Cc1ccc(O)c(O)c1)NC(=O)C(C)(C)N.Cl [Example 17, 1-[(S)-2-(3,4-Dihydroxyphenyl)-1-isopropoxycarbonylethylcarbamoyl]-1-methyl-ethylammonium Chloride] (H-[Aib]-[Dopa]-OiPr) | 72
CC(C)(N)C(=O)N[C@@H](Cc1ccc(O)c(O)c1)C(=O)OC1CCCCC1.Cl [Example 18] (H-[Aib]-[Dopa]-OcHex) | 70
Cl.NC1(C(=O)N[C@@H](Cc2ccc(O)c(O)c2)C(=O)O)CCC1 [Example 20, 1-[(S)-1-Carboxy-2-(3,4-dihydroxyphenyl)-ethylcarbamoyl]-cyclobutyl-ammonium Chloride] (H-[Ac4c]-[Dopa]-OH) | 37
Cl.NC1(C(=O)N[C@@H](Cc2ccc(O)c(O)c2)C(=O)O)CC1 [Example 21, 1-[(S)-1-Carboxy-2-(3,4-dihydroxyphenyl)-ethylcarbamoyl]-cyclopropyl Ammonium Chloride] (H-[Ac3c]-[Dopa]-OH) | 76
COC(=O)[C@H](Cc1ccc(OC(C)=O)c(OC(C)=O)c1)NC(=O)[C@@](C)(N)Cc1ccccc1.Cl [Example 22, (S)-1-[(S)-2-(3,4-Diacetoxyphenyl)-1-methoxycarbonylethylcarbamoyl]-1-methyl-2-phenylethylammonium Chloride] | 19
CC(C)CCOC(=O)[C@H](Cc1ccc(O)c(O)c1)NC(=O)C(C)(C)N.Cl [Example 23, 1-[(S)-2-(3,4-Dihydroxyphenyl)-1-(3-methylbutoxycarbonyl)-ethylcarbamoyl]-1-methylethylammonium Chloride] | 49
COC(=O)[C@H](Cc1ccc(OC(=O)CC(C)(C)C)c(OC(=O)CC(C)(C)C)c1)NC(=O)C1(N)CCCCC1.Cl [Example 24, 1-{(S)-2-[3,4-Bis-(3,3-dimethylbutyryloxy)-phenyl]-1-methoxycarbonyl-ethylcarbamoyl}-cyclohexylammonium Chloride] | 36
